# Measured values as given in patent US8877778B2, “Benzofurane compounds” (Hoffmann-La Roche Inc., priority 2010, dated 2014).
# What was measured:
# [1] = target: human D2 receptor (Homo sapiens (Human), UniProt P14416); assay: Radioligand binding ([3H]-spiperone) to cloned receptors expressed in HEK-293 EBNA cells; conditions: HEK293 EBNA cell membranes expressing human D2
# Protocol: (§1) HEK293 EBNA cells were transiently transfected with expression plasmids encoding for the human D2 or D3 or for the human 5-HT2A receptor, respectively. The cells were harvested 48 h post-transfection, washed three times with cold PBS and stored at −80° C. prior to use. The pellet was suspended in cold 50 mM Tris-HCl buffer comprising 10 mM EDTA (pH 7.4) and was homogenized with a Polytron (Kinematica AG, Basel, Switzerland) for 20-30 sec at 12.000 rpm. After centrifugation at 48.000×g for 30 min at 4° C., the pellet was resuspended in cold 10 mM Tris-HCl buffer comprising 0.1 mM EDTA (pH 7.4), homogenized, and centrifuged as above. This pellet was further resuspended in a smaller volume of ice cold 10 mM Tris-HCl buffer comprising 0.1 mM EDTA (pH 7.4) and homogenized with a Polytron for 20-30 sec at 12.000 rpm. The protein content of this homogenate was determined with the Bio-Rad (Bradford) Protein Assay (Biorad Laboratories GmbH, München, Germany) according to the instructions of the manufacturer using gamma globulin as the standard. This homogenate was stored at −80° C. in aliquots and thawed immediately prior to use.
# (§2) Aliquots of membrane preparations were thawed at RT, resupended in assay buffer (D2, D3: 50 mM Tris-HCl, 120 mM NaCl, 5 mM MgCl2, 1 mM EDTA, 5 mM KCl, 1.5 mM CaCl2, pH=7.4; 5-HT2A: 50 mM Tris-HCl, 10 mM MgCl2, 1 mM EGTA, pH=7.4), homogenized with a Polytron for 20-30 sec at 12.000 rpm and adjusted to a final concentration of approximately 7.5 μg protein/well (D2, D3) and 15 μg protein/well (5-HT2A), respectively.
# (§3) The binding affinity (Ki) of the compounds was determined using radioligand binding. Membranes were incubated in a total volume of 200 μl with a fixed concentration of radioligand (final concentration approximately 0.7 nM [^3H]-spiperone for D2, 0.5 nM [^3H]-spiperone for D3, and 1.1 nM [^3H]-ketanserin for 5-HT2A) and ten concentrations of test compound in ranging between 10 μM-0.1 nM for 1 h at RT. At the end of the incubation, the reaction mixtures were filtered on to unifilter 96-well white microplates with bonded GF/C filters (Packard BioScience, Zürich, Switzerland; preincubated for 1 h in 0.1% polyethylenimine (PEI) in assay buffer) with a Filtermate 196 harvester (Packard BioScience) and washed 3 times with cold assay buffer. The nonspecific binding was determined with equally composed reaction mixtures in the presence of 10 μM unlabelled spiperone. Per well 45 μl of Microscint 40 (Perkin Elmer, Schwerzenbach, Switzerland) was added, plates for sealed, shaken for 20 min and counted for 3 min on a Topcount Microplate Scintillation Counter (Can berra Packard SA, Zürich, Switzerland) with quenching correction.
# (§4) The CPM value for each duplicate of a concentration of competing compound was averaged (y1), then the % specific binding was calculated according to the equation (((y1−non-specific)/(total binding−non-specific))×100). Graphs were plotted with the % specific binding using XLfit, a curve fitting program that iteratively plots the data using Levenberg-Marquardt algorithm. The single site competition analysis equation used was y=A+((B−A)/(1+((x/C)D))), where y is the % specific binding, A is the minimum y, B is the maximum y, C is the IC50, x is the log 10 of the concentration of the competing compound and D is the slope of the curve (the Hill Coefficient). […] The affinity constant (Ki) was calculated using the Cheng-Prusoff equation Ki=(IC50/1+([L]/Kd), where [L] is the concentration of radioligand and Kd is the dissociation constant of the radioligand at the receptor as determined by the saturation isotherm.
# [2] = target: human D3 receptor (Homo sapiens (Human), UniProt P35462); assay: as above; conditions: HEK293 EBNA cell membranes expressing human D3
# Sequence of human D3 receptor (P35462 whole entry): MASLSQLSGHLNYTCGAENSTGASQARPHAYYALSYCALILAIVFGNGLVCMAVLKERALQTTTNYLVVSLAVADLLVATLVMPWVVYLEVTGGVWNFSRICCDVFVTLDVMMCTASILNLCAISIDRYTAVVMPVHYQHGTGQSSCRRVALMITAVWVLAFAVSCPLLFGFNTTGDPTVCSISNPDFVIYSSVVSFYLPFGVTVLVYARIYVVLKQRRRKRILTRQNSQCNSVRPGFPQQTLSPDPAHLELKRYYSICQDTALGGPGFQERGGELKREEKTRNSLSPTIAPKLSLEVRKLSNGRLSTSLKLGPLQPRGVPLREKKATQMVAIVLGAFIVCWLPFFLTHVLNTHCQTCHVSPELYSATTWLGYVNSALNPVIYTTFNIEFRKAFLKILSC
# Protocol: as §1, §2, §3, §4
# [3] = target: human 5-HT2A receptor (Homo sapiens (Human), UniProt P28223); assay: Radioligand binding ([3H]-ketanserin) to cloned receptors expressed in HEK-293 EBNA cells; conditions: HEK293 EBNA cell membranes expressing human 5-HT2A
# Sequence of human 5-HT2A receptor (P28223 whole entry): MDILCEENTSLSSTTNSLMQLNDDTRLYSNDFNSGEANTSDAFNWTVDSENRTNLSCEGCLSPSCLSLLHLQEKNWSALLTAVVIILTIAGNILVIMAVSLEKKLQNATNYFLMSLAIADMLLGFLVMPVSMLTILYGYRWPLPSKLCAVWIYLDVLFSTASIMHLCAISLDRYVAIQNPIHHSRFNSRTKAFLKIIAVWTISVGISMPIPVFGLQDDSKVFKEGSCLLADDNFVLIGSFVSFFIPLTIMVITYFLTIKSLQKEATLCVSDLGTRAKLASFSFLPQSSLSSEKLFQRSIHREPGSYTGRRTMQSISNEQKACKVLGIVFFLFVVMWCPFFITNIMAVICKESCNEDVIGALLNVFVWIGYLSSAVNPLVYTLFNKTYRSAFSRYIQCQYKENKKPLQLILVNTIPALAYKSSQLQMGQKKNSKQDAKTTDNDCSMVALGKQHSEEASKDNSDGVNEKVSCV
# Protocol: as §1, §2, §3, §4
# Sequence of human D2 receptor (P14416 whole entry): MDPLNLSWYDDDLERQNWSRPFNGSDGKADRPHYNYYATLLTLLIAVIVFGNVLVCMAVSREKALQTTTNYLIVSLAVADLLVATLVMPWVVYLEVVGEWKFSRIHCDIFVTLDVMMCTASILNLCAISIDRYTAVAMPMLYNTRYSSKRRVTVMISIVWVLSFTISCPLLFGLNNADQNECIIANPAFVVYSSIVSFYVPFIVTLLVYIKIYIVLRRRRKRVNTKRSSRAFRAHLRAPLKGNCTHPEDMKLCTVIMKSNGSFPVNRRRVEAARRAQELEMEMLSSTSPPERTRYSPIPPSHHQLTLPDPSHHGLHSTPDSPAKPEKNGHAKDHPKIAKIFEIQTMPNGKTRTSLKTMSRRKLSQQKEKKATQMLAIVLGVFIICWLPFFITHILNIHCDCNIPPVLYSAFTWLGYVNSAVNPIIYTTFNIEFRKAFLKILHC
Compound,Ki [1],Ki [2],Ki [3],melting point
"O=C(N[C@H]1CC[C@H](CCN2CCC(c3cccc4c3CCO4)CC2)CC1)c1ccc(C(F)(F)F)cc1 [Example 57, trans-N-(4-{2-[4-(2,3-Dihydro-benzofuran-4-yl)-piperidin-1-yl]-ethyl}-cyclohexyl)-4-trifluoromethyl-benzamide]",1.46 µM,0.0661 µM,0.135 µM,228 °C
"CCC(=O)N[C@H]1CC[C@H](CCN2CCC(c3cccc4occc34)CC2)CC1 [Example 9, trans-N-{4-[2-(4-Benzofuran-4-yl-piperidin-1-yl)-ethyl]-cyclohexyl}-propionamide]",0.0919 µM,0.0022 µM,0.0056 µM,170 °C
"O=C(N[C@H]1CC[C@H](CCN2CCC(c3cccc4occc34)CC2)CC1)C1CCOCC1 [Example 3, Tetrahydro-pyran-4-carboxylic acid trans-{4-[2-(4-benzofuran-4-yl-piperidin-1-yl)-ethyl]-cyclohexyl}-amide]",0.305 µM,0.0119 µM,0.0022 µM,217 °C
"CC(=O)N[C@H]1CC[C@H](CCN2CCC(c3cccc4c3CCO4)CC2)CC1 [Example 5, trans-N-(4-{2-[4-(2,3-Dihydro-benzofuran-4-yl)-piperidin-1-yl]-ethyl}-cyclohexyl)-acetamide]",0.298 µM,0.006 µM,0.0372 µM,183 °C
"O=C(N[C@H]1CC[C@H](CCN2CCC(c3cccc4c3CCO4)CC2)CC1)C1(O)CC1 [Example 28, 1-Hydroxy-cyclopropanecarboxylic acid trans-(4-{2-[4-(2,3-dihydro-benzofuran-4-yl)-piperidin-1-yl]-ethyl}-cyclohexyl)-amide]",0.299 µM,0.0084 µM,0.0093 µM,164 °C
"O=C(CC1CCOCC1)N[C@H]1CC[C@H](CCN2CCC(c3cccc4c3CCO4)CC2)CC1 [Example 8, trans-N-(4-{2-[4-(2,3-Dihydro-benzofuran-4-yl)-piperidin-1-yl]-ethyl}-cyclohexyl)-2-(tetrahydro-pyran-4-yl)-acetamide]",0.65 µM,0.0104 µM,0.0386 µM,191 °C
"O=C(CC(F)(F)F)N[C@H]1CC[C@H](CCN2CCC(c3cccc4c3CCO4)CC2)CC1 [Example 18, trans-N-(4-{2-[4-(2,3-Dihydro-benzofuran-4-yl)-piperidin-1-yl]ethyl}-cyclohexyl)-3,3,3-trifluoro-propionamide]",0.345 µM,0.0044 µM,0.0342 µM,197 °C
"O=C(CO)N[C@H]1CC[C@H](CCN2CCC(c3cccc4c3CCO4)CC2)CC1 [Example 20, trans-N-(4-{2-[4-(2,3-Dihydro-benzofuran-4-yl)-piperidin-1-yl]-ethyl}-cyclohexyl)-2-hydroxy-acetamide]",0.571 µM,0.01 µM,0.0253 µM,154.5 °C
"O=C(N[C@H]1CC[C@H](CCN2CCC(c3cccc4c3CCO4)CC2)CC1)c1ccc(Cl)cc1 [Example 34, trans-4-Chloro-N-(4-{2-[4-(2,3-dihydro-benzofuran-4-yl)-piperidin-1-yl]-ethyl}-cyclohexyl)-benzamide]",0.0719 µM,0.0049 µM,0.0181 µM,224 °C
"CCCC(=O)N[C@H]1CC[C@H](CCN2CCC(c3cccc4c3CCO4)CC2)CC1 [Example 73, trans-N-(4-{2-[4-(2,3-Dihydro-benzofuran-4-yl)-piperidin-1-yl]-ethyl}-cyclohexyl)-butyramide]",0.197 µM,0.00516 µM,0.0934 µM,196 °C
"O=C(N[C@H]1CC[C@H](CCN2CCC(c3cccc4c3CCO4)CC2)CC1)c1ccc(-n2cccc2)cc1 [Example 90, trans-N-(4-{2-[4-(2,3-Dihydro-benzofuran-4-yl)-piperidin-1-yl]-ethyl}-cyclohexyl)-4-pyrrol-1-yl-benzamide]",0.0851 µM,0.0105 µM,0.0304 µM,228 °C
"O=C(C[C@@H](O)C(F)(F)F)N[C@H]1CC[C@H](CCN2CCC(c3cccc4c3CCO4)CC2)CC1 [Example 36, trans-(R)—N-(4-{2-[4-(2,3-Dihydro-benzofuran-4-yl)-piperidin-1-yl]-ethyl}-cyclohexyl)-4,4,4-trifluoro-3-hydroxy-butyramide]",0.239 µM,0.0065 µM,0.0534 µM,189 °C
"O=C(N[C@H]1CC[C@H](CCN2CCC(c3cccc4c3CCO4)CC2)CC1)c1ccc(F)cc1 [Example 35, trans-N-(4-{2-[4-(2,3-Dihydro-benzofuran-4-yl)-piperidin-1-yl]-ethyl}-cyclohexyl)-4-fluoro-benzamide]",0.0737 µM,0.0049 µM,0.0142 µM,213 °C
"O=C(N[C@H]1CC[C@H](CCN2CCC(c3cccc4c3CCO4)CC2)CC1)c1ccnc2ccccc12 [Example 40, Quinoline-4-carboxylic acid trans-(4-{2-[4-(2,3-dihydro-benzofuran-4-yl)-piperidin-1-yl]-ethyl}-cyclohexyl)-amide]",0.563 µM,0.0061 µM,0.0242 µM,211 °C
"O=C(Cc1noc2ccccc12)N[C@H]1CC[C@H](CCN2CCC(c3cccc4c3CCO4)CC2)CC1 [Example 93, trans-2-Benzo[d] isoxazol-3-yl-N-(4-{2-[4-(2,3-dihydro-benzofuran-4-yl)-piperidin-1-yl]-ethyl}-cyclohexyl)-acetamide]",0.244 µM,0.00321 µM,0.0307 µM,214 °C
"CCS(=O)(=O)N[C@H]1CC[C@H](CCN2CCC(c3cccc4c3CCO4)CC2)CC1 [Example 48, Ethanesulfonic acid trans-(4-{2-[4-(2,3-dihydro-benzofuran-4-yl)-piperidin-1-yl]-ethyl}-cyclohexyl)-amide]",0.333 µM,0.0112 µM,0.0348 µM,131 °C
"Cc1nc(-c2ccc(C(=O)N[C@H]3CC[C@H](CCN4CCC(c5cccc6c5CCO6)CC4)CC3)cc2)no1 [Example 69, trans-N-(4-{2-[4-(2,3-Dihydro-benzofuran-4-yl)-piperidin-1-yl]-ethyl}-cyclohexyl)-4-(5-methyl-[1,2,4]oxadiazol-3-yl)-benzamide]",3.73 µM,0.0149 µM,0.0545 µM,256.5 °C
"O=C(N[C@H]1CC[C@H](CCN2CCC(c3cccc4c3CCO4)CC2)CC1)c1ccc(N2CCOCC2)nc1 [Example 46, trans-N-(4-{2-[4-(2,3-Dihydro-benzofuran-4-yl)-piperidin-1-yl]-ethyl}-cyclohexyl)-6-morpholin-4-yl-nicotinamide]",0.919 µM,0.0163 µM,0.0276 µM,228 °C
"C/C=C/CC(=O)N[C@H]1CC[C@H](CCN2CCC(c3cccc4c3CCO4)CC2)CC1 [Example 85, (E)-Pent-3-enoic acid trans-(4-{2-[4-(2,3-dihydro-benzofuran-4-yl)-piperidin-1-yl]-ethyl}-cyclohexyl)-amide]",0.438 µM,0.00579 µM,0.0773 µM,196 °C
